According to paper PMC7139549, “TLD1433 Photosensitizer Inhibits Conjunctival Melanoma Cells in Zebrafish Ectopic and Orthotopic Tumour Models” (Cancers, 2020):
Where two headings read alike, the source gives them in different places.

Columns and labels:
[1] = test system: CRMM2 engrafted cells in zebrafish orthotopic model; assay: In situ TUNEL assay, CRMM2 orthotopic zebrafish model; type: in vivo, Zebrafish (Danio rerio); conditions: RO 2.3 mM
Procedure: In situ TUNEL assay on fixed embryos was used to detect TLD1433 induced apoptosis in zebrafish CRMM1 and CRMM2 orthotopic tumour models at 4 dpi after light activation of 2.3 mM TLD1433, administrated by retro orbital injection. The DNA strand breaks in apoptotic tumour cells were stained with fluorescein and visualized as a green signal.
Figure 10 TUNEL assay of in CRMM1 and CRMM2 orthotopic model after RO of TLD1433. Red fluorescent CRMM1 (A) and CRMM2 (B) cells were injected at 2dpf behind the ZF eye and divided into four groups for drug treatment. RO administration of vehicle control and TLD1433 was performed as described in Figure 9C,E. After dark or light exposure (21 mW/cm^2, 114 J.cm^−2, 520 nm) embryos were fixed and TUNEL staining was performed. Representative images of embryos are shown in this figure. (A,B) In TLD1433 light groups nuclear DNA fragmentation by nucleases is detected by co-localization of green (DNA fragments) and red signal of engrafted CM cells, depicted as yellow signal and marked by white arrows. In control dark, control light, TLD1433 dark, there are no positive green apoptotic tumour cells observed. […] Experiment was performed 3 times with a group size of 10 embryos.
The zebrafish larvae were fixed overnight with 4% PFA at 4 °C. Embryos were washed in PBST for 5 min and dehydrated by a graded methanol series until reaching 100% methanol. […]

[2] = test system: A375 cutaneous melanoma cell line; assay: SRB cell viability assay, A375; type: cell-based, Human
Procedure: TLD1433 is known to generate reactive oxygen species (ROS) with high quantum efficacy in many cancer cell lines. However, there is no report of the in vitro toxicity of this compound in eye melanoma (UM) cell lines. We determined the cell viability of three conjunctival melanoma cell lines (CRMM1, CRMM2 and CM2005.1), and three uveal melanoma cell lines (OMM1, OMM2.5, MEL270) in the presence of TLD1433, both in the dark or under green light irradiation (21 mW/cm^2, 19 J/cm^2, 520 nm, 15 min), and compared this viability to epidermoid carcinoma A431 and cutaneous melanoma A375 cell lines under the same conditions. […] The phototoxicity index (PI), defined as the ratio of the dark EC50 to the light EC50, was also calculated and represents the amplification of TLD1433 activity with a light trigger. […]
(§1) Figure 2 Cell viability after TLD1433 treatment of eight tumour cell lines (CRMM1, CRMM2, CM2005.1, OMM1, OMM2.5, MEL270, A431, A375). […] The absorbance of Sulforhodamine B in solution was measured at 520 nm. […]
(§2) At day 0, cells were detached using 1mL of trypsin, resuspended in 4 mL of media and transferred to a 15 mL corning falcon tube. Cells were counted using trypan blue and BioRad® TC20™ automated cell counter (Figure 11). […] Next day, the dye was dissolved using Tri-base (0.25%) and absorbance of SRB at 510 nm was recorded from each well using a Tecan plate reader. […]

[3] = test system: CRMM2 conjunctival melanoma cell line; assay: SRB cell viability assay, CRMM2; type: cell-based, Human
Procedure: TLD1433 is known to generate reactive oxygen species (ROS) with high quantum efficacy in many cancer cell lines. However, there is no report of the in vitro toxicity of this compound in eye melanoma (UM) cell lines. We determined the cell viability of three conjunctival melanoma cell lines (CRMM1, CRMM2 and CM2005.1), and three uveal melanoma cell lines (OMM1, OMM2.5, MEL270) in the presence of TLD1433, both in the dark or under green light irradiation (21 mW/cm^2, 19 J/cm^2, 520 nm, 15 min), and compared this viability to epidermoid carcinoma A431 and cutaneous melanoma A375 cell lines under the same conditions. The protocol used was based on previous work from the Bonnet group, and differed slightly from recommendations from McFarland et al.. […] The effective concentration (EC50) values, i.e., the concentration required to reduce cell viability by 50% compared to untreated wells, were assessed by fitting the dose-response curves with a Hill equation. The phototoxicity index (PI), defined as the ratio of the dark EC50 to the light EC50, was also calculated and represents the amplification of TLD1433 activity with a light trigger. […]
as §1
as §2, with “11). Dilutions of 6000 (CRMM1), 6000 (CRMM2), 8000 (CM2005.1), 6000 (OMM1), 6000 (OMM2.5), 6000 (MEL270) 8000 (A431), and 4000 (A375) cells/well were calculated from each cell suspension at a final volume of 6 mL using the following formula: Vc=(Vt×10C)/Lc where Vt = total volume of solution, C = number of cells per well/per 100 μL and Lc = live cells count (cells/mL).” for “11).”

Cc1ccnc(-c2cc(C)ccn2)c1.Cc1ccnc(-c2cc(C)ccn2)c1.[Cl-].[Cl-].[Ru+2].c1csc(-c2ccc(-c3ccc(-c4nc5c6cccnc6c6ncccc6c5[nH]4)s3)s2)c1 [TLD1433]
TUNEL apoptosis of engrafted cells (in words) ([1]; dark, 4 dpi): no positive green signal detected | TUNEL apoptosis of engrafted cells (in words) ([1]; light 114 J.cm^−2, 4 dpi): induced CRMM1 and CRMM2 cell apoptosis | EC50 ([2]; A375, dark, 24 h treatment, SRB, read-out: EC50, dark): > 5000 nM | EC50 ([2]; A375, green light 520 nm, 15 min, 21 mW/cm^2, 19 J.cm^−2, DLI 24 h, read-out: EC50,light): 50 nM | EC50 ([3]; CRMM2, dark, 24 h treatment, SRB, read-out: EC50, dark): 1000 nM | EC50 ([3]; CRMM2, green light 520 nm, 15 min, 21 mW/cm^2, 19 J.cm^−2, DLI 24 h, read-out: EC50,light): 4.8 nM | PI (photo index) ([3]; CRMM2, ratio of dark and light EC50, 19 J.cm^−2 green light): 210
